This passage reports inhibition results from EP2832223A1, “HERBICIDAL COMPOSITION” (Ishihara Sangyo Kaisha, Ltd., priority 2012, dated 2013).

Common to all, as to assay type: in vivo
In assay [1] the test system is sunn-hemp (Crotalaria juncea L.). Nature of the assay: Test Example 7: pot test, soil treatment, visual growth inhibition. The note with it: soil treatment, 28th day after treatment, read-out: Growth inhibition rate (%) of sunn-hemp Measured value. How it is done:
Upland field soil was put into a 1/300,000 ha pot, and seeds of sunn-hemp (Crotalaria juncea L.) were sown. On the next day, predetermined amounts of ONEHOPE NYUZAI (tradename), Click (tradename), Mikado (tradename) and a wettable powder containing bicyclopyrone prepared in accordance with a conventional formulation method were diluted with water (in an amount corresponding to 1,000 L/ha) and applied for soil treatment by a small sprayer.
On the 28th day after treatment, the state of growth of the sunn-hemp was visually observed to determine the growth inhibition rate (%). The growth inhibition rate (%) (measured value) and the growth inhibition rate (%) calculated in the same manner as in the above Test Example 1 are shown in Table 7.

For assay [2], the system named is green foxtail (Setaria viridis (L.) P.Beauv.). Nature of the assay: Test Example 3: pot test, soil treatment, visual growth inhibition. The note with it: soil treatment, 27th day after treatment, read-out: Growth inhibition rate (%) of green foxtail Measured value. As to the method: Upland field soil was put into a 1/1,000,000 ha pot, and seeds of green foxtail (Setaria viridis (L.) P.Beauv.) were sown. On the next day, predetermined amounts of ONEHOPE NYUZAI (tradename), Click (tradename) and SC formulation containing sulcotrione as an active ingredient (tradename: Mikado, manufactured by Bayer CropScience) were diluted with water (in an amount corresponding to 1,000 L/ha) and applied for soil treatment by a small sprayer.
On the 27th day after treatment, the state of growth of the green foxtail was visually observed to determine the growth inhibition rate (%). The growth inhibition rate (%) (measured value) and the growth inhibition rate (%) calculated in the same manner as in the above Test Example 1 are shown in Table 3.

In assay [3] the test system is Japanese millet (Echinochloa utilis Ohwi et Yabuno). The experiment in a line: Test Example 13: pot test, soil and foliar treatment, visual growth inhibition. The note with it: soil treatment and foliar treatment, 28th day after treatment, read-out: Growth inhibition rate (%) of Japanese millet Measured value. As to the method: Upland field soil was put into a 1/1,000,000 ha pot, and seeds of Japanese millet (Echinochloa utilis Ohwi et Yabuno) were sown. When the Japanese millet reached 3.8 to 4.0-leaf stage, seeds of Japanese millet were further sown in the same pot. On the next day, predetermined amounts of ONEHOPE NYUZAI (tradename), Click (tradename) and a wettable powder containing bicyclopyrone prepared in accordance with a conventional formulation method were diluted with water (in an amount corresponding to 1,000 L/ha) and applied for soil treatment and for foliar treatment by a small sprayer.
On the 28th day after treatment, the state of growth of the Japanese millet was visually observed to determine the growth inhibition rate (%). The growth inhibition rate (%) (measured value) and the growth inhibition rate (%) calculated in the same manner as in the above Test Example 1 are shown in Table 13.

The test system of assay [4] is wild oat (Avena fatua L.). The experiment in a line: Test Example 2: pot test, soil treatment, visual growth inhibition. The note with it: 28th day after treatment, read-out: Growth inhibition rate (%) of wild oat Measured value. How it is done: Upland field soil was put into a 1/500,000 ha pot, and seeds of wild oat (Avena fatua L.) were sown. On the next day, predetermined amounts of ONEHOPE NYUZAI (tradename), Click (tradename) and SC formulation containing mesotrione as an active ingredient (tradename: Callisto, manufactured by Syngenta) were diluted with water (in an amount corresponding to 1,000 L/ha) and applied for soil treatment by a small sprayer.
On the 28th day after treatment, the state of growth of the wild oat was visually observed to determine the growth inhibition rate (%). The growth inhibition rate (%) (measured value) and the growth inhibition rate (%) calculated in the same manner as in the above Test Example 1 are shown in Table 2.

For assay [5], the system named is velvetleaf (Abutilon theophrasti Medic.). Nature of the assay: Test Example 16: pot test, soil and foliar treatment, visual growth inhibition. Particulars: soil treatment and foliar treatment, 29th day after treatment, read-out: Growth inhibition rate (%) of velvetleaf Measured value. The text has this:
Upland field soil was put into a 1/1,000,000 ha pot, and seeds of velvetleaf (Abutilon theophrasti Medic.) were sown. When the velvetleaf reached 4.0 to 4.3-leaf stage, seeds of velvetleaf were further sown in the same pot assuming conditions such that weeds would later grow. Three days later, predetermined amounts of ONEHOPE NYUZAI (tradename), Click (tradename), Callisto (tradename), Mikado (tradename), a wettable powder containing bicyclopyrone as an active ingredient and Clio (tradename) were diluted with water in an amount corresponding to 300 L/ha and applied for soil treatment and for foliar treatment by a small sprayer.
On the 29th day after treatment, the state of growth of the velvetleaf was visually observed to determine the growth inhibition rate (%). The growth inhibition rate (%) (measured value) and the growth inhibition rate (%) calculated in the same manner as in the above Test Example 1 are shown in Table 16.

For assay [6], the system named is rostrate sesbania (Sesbania rostrata Bremek. & Oberm.). Nature of the assay: Test Example 8: pot test, soil treatment, visual growth inhibition. Particulars: soil treatment, 28th day after treatment, read-out: Growth inhibition rate (%) of rostrate sesbania Measured value. As to the method: Upland field soil was put into a 1/300,000 ha pot, and seeds of rostrate sesbania (Sesbania rostrata Bremek. & Oberm.) were sown. On the next day, predetermined amounts of ONEHOPE NYUZAI (tradename), Click (tradename), Spectrum (tradename) and Clio (tradename) were diluted with water (in an amount corresponding to 1,000 L/ha) and applied for soil treatment by a small sprayer.
On the 28th day after treatment, the state of growth of the rostrate sesbania was visually observed to determine the growth inhibition rate (%). The growth inhibition rate (%) (measured value) and the growth inhibition rate (%) calculated in the same manner as in the above Test Example 1 are shown in Table 8.

Assay [7] has as its system common cocklebur (Xanthium strumarium L.). Nature of the assay: Test Example 12: pot test, foliar treatment, visual growth inhibition. The note with it: foliar treatment at 4.2 to 4.3-leaf stage, 28th day after treatment, read-out: Growth inhibition rate (%) of common cocklebur Measured value. As to the method: Upland field soil was put into a 1/1,000,000 ha pot, and seeds of common cocklebur (Xanthium strumarium L.) were sown. When the common cocklebur reached 4.2 to 4.3-leaf stage, predetermined amounts of ONEHOPE NYUZAI (tradename), Click (tradename) and water dispersible granules containing flufenacet as an active ingredient (tradename: Cadou, manufactured by Bayer CropScience) were diluted with water (in an amount corresponding to 1,000 L/ha) and applied for foliar treatment by a small sprayer.
On the 28th day after treatment, the state of growth of the common cocklebur was visually observed to determine the growth inhibition rate (%). The growth inhibition rate (%) (measured value) and the growth inhibition rate (%) calculated in the same manner as in the above Test Example 1 are shown in Table 12.

In general, inhibition refers to the drop in the measured response relative to a control, in per cent.

For `CCNc1nc(Cl)nc(NC(C)(C)C)n1` [Terbuthylazine, N^2-tert-butyl-6-chloro-N^4-ethyl-1,3,5-triazine-2,4-diamine], the inhibition at 200 g/ha in assay [1] (200 g/ha) worked out at 30%. The results for the inhibition at 500 g/ha in assay [2] (500 g/ha), in assay [4] (500 g/ha) and in assay [5] (500 g/ha) were 18%, 60% and 15%, respectively. Also, the inhibition at 250 g/ha is 0% in assay [3] (250 g/ha) and 30% in assay [7] (250 g/ha). Also, the inhibition at 1000 g/ha in assay [5] (1000 g/ha) amounted to 18%. In assay [6] (2000 g/ha), the inhibition at 2000 g/ha came to 0%.

Take `COc1cc(OC)nc(NC(=O)NS(=O)(=O)c2ncccc2C(=O)N(C)C)n1` [Nicosulfuron, 2-(4,6-dimethoxypyrimidin-2-ylcarbamoylsulfamoyl)-N,N-dimethylnicotinamide]: the inhibition at 100 g/ha in assay [1] (100 g/ha) amounted to 40%. Further, the figures for the inhibition at 30 g/ha in assay [2] (30 g/ha), in assay [4] (30 g/ha) and in assay [5] (30 g/ha) were 60%, 70% and 0%, respectively. Also, the results for the inhibition at 15 g/ha in assay [3] (15 g/ha) and in assay [7] (15 g/ha) were 55% and 80%, respectively. Also, the inhibition at 10 g/ha in assay [6] (10 g/ha) is 0%.
